Reference: patent publication US20240067617A1 (Albireo AB, priority 2022, published 2024)

Assays:
[1] = target: T1, hIBAT (Homo sapiens, UniProt Q12908); assay: IBAT (h/m) assay: 3H-taurocholic acid uptake in human IBAT-overexpressing cells; assay type: cell-based; conditions: 0.25 μM 3H-taurocholic acid + 5 μM cold taurocholic acid, 20 minutes at 37° C., highest test concentration 10 μM
T1 construct: expressed in transfected cells; kept under Puromycin selection
T1 sequence (Q12908 1-348): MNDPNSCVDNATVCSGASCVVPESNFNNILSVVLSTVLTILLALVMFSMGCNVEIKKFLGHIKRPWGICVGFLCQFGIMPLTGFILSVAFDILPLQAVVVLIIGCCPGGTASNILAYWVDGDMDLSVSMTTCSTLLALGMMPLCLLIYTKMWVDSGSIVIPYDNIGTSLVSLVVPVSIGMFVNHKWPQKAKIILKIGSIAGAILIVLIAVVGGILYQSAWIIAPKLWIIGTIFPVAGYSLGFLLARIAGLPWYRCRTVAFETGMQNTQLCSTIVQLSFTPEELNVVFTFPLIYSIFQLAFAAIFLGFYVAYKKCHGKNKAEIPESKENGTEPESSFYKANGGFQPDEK
Method in brief: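 Human or mouse IBAT-overexpressing cells cultured 48 h, then exposed for 20 min at 37 °C to compounds (top 10 μM, 3-fold, 10 points; 0.2% DMSO) with 0.25 μM 3H-taurocholic acid plus 5 μM cold taurocholic acid. Uptake stopped on ice, cells washed with cold 1 mM taurocholic acid, radioactivity counted by scintillation.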

[2] = target: T2, hLBAT (Homo sapiens, UniProt Q14973); assay: LBAT (h/m) assay: 3H-taurocholic acid uptake in human LBAT-overexpressing cells; assay type: cell-based; conditions: 0.3 μM 3H-taurocholic acid + 7.5 μM cold taurocholic acid, 20 minutes at 37° C.
T2 construct: expressed in transfected cells; kept under Geneticin selection
T2 sequence (Q14973 1-349): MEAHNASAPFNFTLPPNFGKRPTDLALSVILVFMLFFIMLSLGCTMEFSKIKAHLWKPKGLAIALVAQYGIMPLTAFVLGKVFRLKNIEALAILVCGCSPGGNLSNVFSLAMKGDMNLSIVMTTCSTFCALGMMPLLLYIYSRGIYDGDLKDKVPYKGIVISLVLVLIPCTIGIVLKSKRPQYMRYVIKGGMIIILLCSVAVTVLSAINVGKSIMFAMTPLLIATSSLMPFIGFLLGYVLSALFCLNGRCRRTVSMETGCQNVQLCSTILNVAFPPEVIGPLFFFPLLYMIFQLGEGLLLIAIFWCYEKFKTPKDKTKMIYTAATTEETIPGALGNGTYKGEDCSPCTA
Method in brief: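 Human or mouse LBAT-overexpressing cells given 10-point inhibitor series with 0.3 μM 3H-taurocholic acid plus cold taurocholic acid (7.5 μM human, 25 μM mouse), 0.2% DMSO, for 20 min at 37° C. Stopped on ice, washed with 1 mM unlabelled taurocholic acid; uptake measured by scintillation counting.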

Row | IC50 [1] [nM] | IC50 [2] [nM] | Structure (SMILES)
1 | 0.5 | > 3330 | CCCCC1(CC)CN(c2ccccc2)c2cc(SC)c(CSCC(=O)O)cc2S(=O)(=O)N1 (racemic) [Example 9, 2-(((3-butyl-3-ethyl-7-(methylthio)-1,1-dioxido-5-phenyl-2,3,4,5-tetrahydro-1,2,5-benzothiadiazepin-8-yl)methyl)thio)acetic acid]
2 | 14 | > 1000 | CCCCC1(CC)CN(c2ccccc2)c2cc(S(C)(=O)=O)c(CSCC(=O)O)cc2S(=O)(=O)N1 (racemic) [Example 47, 2-(((3-butyl-3-ethyl-7-(methylsulfonyl)-1,1-dioxido-5-phenyl-2,3,4,5-tetrahydro-1,2,5-benzothiadiazepin-8-yl)methyl)thio)acetic acid]
3 | 70 | 34 | CCCCC1CN(c2ccccc2)c2cc(SC)c(CSCC(=O)O)cc2S(=O)(=O)N1C (racemic) [Example 11, 2-(((3-butyl-2-methyl-7-(methylthio)-1,1-dioxido-5-phenyl-2,3,4,5-tetrahydro-1,2,5-benzothiadiazepin-8-yl)methyl)thio)acetic acid]
4 | > 10000 | 241 | CCCCC1(C)CN(c2ccccc2)c2cc(OC)c(CSC(C)(C)C(=O)O)cc2S(=O)(=O)C1 (single isomer, unassigned) [42, enantiomer 2]
5 | 14 | > 1000 | CCCCC1(C)CN(c2ccccc2)c2cc(OC)c(CSCC(=O)O)cc2S(=O)(=O)N1 (centres unmarked) [Example 53, 2-(((3-butyl-7-methoxy-3-methyl-1,1-dioxido-5-phenyl-2,3,4,5-tetrahydro-1,2,5-benzothiadiazepin-8-yl)methyl)thio)acetic acid]
6 | 28 | > 1000 | CCCCC1(CC)CN(c2ccccc2)c2cc(OC)c(CSCC(=O)O)cc2S(=O)(=O)N1 (single isomer, unassigned) [45, enantiomer 1]
7 | 900 | > 3330 | CCCCC1(CCCC)CN(c2ccccc2)c2cc(SC)c(CSCC(=O)O)cc2S(=O)(=O)N1C [Example 22, 2-(((3,3-dibutyl-2-methyl-7-(methylthio)-1,1-dioxido-5-phenyl-2,3,4,5-tetrahydro-1,2,5-benzothiadiazepin-8-yl)methyl)thio)acetic acid]
8 | 532 | > 10000 | CCCCC1(C)CN(c2ccccc2)c2cc(OC)c(CSCC(=O)O)cc2S(=O)(=O)C1 (single isomer, unassigned) [28, enantiomer 2]
9 | 295 | 150 | CCCCC1(CC)CN(c2ccc(F)cc2)c2cc(OC)c(CSC(C)(C)C(=O)O)cc2S(=O)(=O)C1 (racemic) [Example 33, 2-(((3-butyl-3-ethyl-5-(4-fluorophenyl)-7-methoxy-1,1-dioxido-2,3,4,5-tetrahydro-1,5-benzothiazepin-8-yl)methyl)thio)-2-methylpropanoic acid]
10 | 192 | 194 | CCCCC1(C)CN(c2ccccc2)c2cc(SC)c(CSC(C)(C)C(=O)O)cc2S(=O)(=O)C1 (single isomer, unassigned) [19, enantiomer 1]
11 | 0.8 | 7260 | CCCCC1(C)CN(c2ccccc2)c2cc(SC)c(CSCC(=O)O)cc2S(=O)(=O)C1 (racemic) [Example 4, 2-(((3-butyl-3-methyl-7-(methylthio)-1,1-dioxido-5-phenyl-2,3,4,5-tetrahydro-1,5-benzothiazepin-8-yl)methyl)thio)acetic acid]
12 | 1870 | 176 | CCCCC1(C)CN(c2ccccc2)c2cc(SC)c(CSC(C)(C)C(=O)O)cc2S(=O)(=O)C1 (single isomer, unassigned) [19, enantiomer 2]
13 | 1.7 | 3370 | CCCCC1(CCCC)CN(c2ccccc2)c2cc(SC)c(CSCC(=O)O)cc2S(=O)(=O)C1 [Example 3, 2-(((3,3-dibutyl-7-(methylthio)-1,1-dioxido-5-phenyl-2,3,4,5-tetrahydro-1,5-benzothiazepin-8-yl)methyl)thio)acetic acid]
